In PMC7854383, “Cellular Uptake of Psychostimulants – Are High- and Low-Affinity Organic Cation Transporters Drug Traffickers?” (Frontiers in Pharmacology, 2021):
Substitutions are numbered along the chain they refer to. Several values for one entry are separate records, joined by “and”; a condition that tells them apart may be missing. Equal entries are not always repeated.

Columns and labels:
[1] = four healthy volunteers; ref Toennes and Kauert, 2002; www.dosing.de and www.drugbank.ca; cited from earlier work
DAT [2] = target: T1, DAT (Homo sapiens, UniProt Q01959); assay: Screening of cellular uptake at 1 µM, DAT-overexpressing HEK293 cells over empty vector control cells; conditions: 2 min
Description: (§3) The HEK293 cells were cultered in DMEM medium supplemented with 10% (v/v) fetal bovine serum as well as penicillin (100 U/ml) and streptomycin (100 μg/ml) obtained from Thermo Fisher Scientific (Darmstadt, Germany). Cells were seeded on 12-well plates coated with poly-D-lysine (Sigma-Aldrich, Taufkirchen, Germany) 48 h before the transport experiments and incubated at 37°C, 95% relative humidity, and 5% CO2. […] All cell lines were washed with 37°C HBSS+ and subsequently incubated with the pre-warmed substrate in HBSS+ at 37°C. The time points for measuring substrate uptake were 1 min for MATE2-K and 2 min for the other SLCs. […] The reaction was stopped by adding ice-cold HBSS+, and the cells were washed twice with ice-cold HBSS+ before lysis with 80% acetonitrile (LGC Standards, Wesel, Germany) including an internal standard. Subsequently, the intracellular substrate accumulation was determined using LC-MS/MS.
(§4) Intracellular accumulation was measured by HPLC-MS/MS using a Shimadzu Nexera HPLC system with a LC-30AD pump, a SIL-30AC autosampler, a CTO-20AC column oven, and a CBM-20A controller (Shimadzu, Kyoto, Japan). […] Peak integration and quantification of the analytes was done using the Analyst software (Version 1.6.2, AB SCIEX, Darmstadt, Germany) and determined by simultaneous measurement of standard curves with known concentrations.

OCT2 = target: T2, OCT2 (Homo sapiens, UniProt O15244); assay: Screening of cellular uptake at 1 µM, OCT2-overexpressing HEK293 cells over empty vector control cells; conditions: 2 min
T2 sequence (O15244 1-555 S270A): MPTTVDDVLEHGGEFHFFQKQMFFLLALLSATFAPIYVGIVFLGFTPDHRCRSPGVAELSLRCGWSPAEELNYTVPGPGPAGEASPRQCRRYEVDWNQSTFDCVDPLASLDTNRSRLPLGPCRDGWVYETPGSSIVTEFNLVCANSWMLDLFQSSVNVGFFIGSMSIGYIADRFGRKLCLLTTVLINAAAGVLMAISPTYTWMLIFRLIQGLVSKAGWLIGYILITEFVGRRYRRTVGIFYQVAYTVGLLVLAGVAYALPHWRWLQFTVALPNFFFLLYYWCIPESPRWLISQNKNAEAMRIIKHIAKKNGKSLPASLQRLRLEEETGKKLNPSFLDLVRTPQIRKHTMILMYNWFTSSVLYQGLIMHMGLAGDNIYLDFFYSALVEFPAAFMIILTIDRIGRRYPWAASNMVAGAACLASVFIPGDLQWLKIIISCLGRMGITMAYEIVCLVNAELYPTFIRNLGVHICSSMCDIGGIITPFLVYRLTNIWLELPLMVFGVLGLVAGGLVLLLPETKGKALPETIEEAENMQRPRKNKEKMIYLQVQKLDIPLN
Excerpt: (§1) Koepsell and Gorbulev (University of Würzburg, Germany).
(§2) Eighteen psychostimulants and hallucinogens were initially screened for their potential to be substrates for different polyspecific OCTs and high-affinity monoamine neurotransmitter transporters (Figure 3), as well as for the efflux transporter MATE2-K (Supplementary Figure S1).

DAT [3] = target: T1, DAT; assay: Concentration-dependent transport by DAT in HEK293 cells; conditions: DAT versus NET
NET = NET (Homo sapiens, UniProt P23975); assay: Screening of cellular uptake at 1 µM, NET-overexpressing HEK293 cells over empty vector control cells; conditions: 2 min
Description: as §3, §4

OCT2 variant A270S = target: T3, OCT2 variant A270S (Homo sapiens, UniProt O15244); assay: Concentration-dependent transport by OCT2 variant A270S in HEK293 cells
T3 sequence (O15244 1-555): T2 sequence (O15244 1-555 S270A) with A270S

wild-type OCT2 = target: T4, wild-type OCT2 (Homo sapiens, UniProt O15244); assay: Concentration-dependent transport by wild-type OCT2 in HEK293 cells
T4 sequence (O15244 1-555 S270A): T2 sequence (O15244 1-555 S270A)

OCT1 [4] = target: T5, OCT1 (Homo sapiens, UniProt O15245); assay: Inhibition of mescaline uptake by OCT1; type: in vitro ADME; design: expressed in transfected cells; conditions: 1 mM MPP^+; compared with empty vector-transfected cells
T5 sequence (O15245 1-554): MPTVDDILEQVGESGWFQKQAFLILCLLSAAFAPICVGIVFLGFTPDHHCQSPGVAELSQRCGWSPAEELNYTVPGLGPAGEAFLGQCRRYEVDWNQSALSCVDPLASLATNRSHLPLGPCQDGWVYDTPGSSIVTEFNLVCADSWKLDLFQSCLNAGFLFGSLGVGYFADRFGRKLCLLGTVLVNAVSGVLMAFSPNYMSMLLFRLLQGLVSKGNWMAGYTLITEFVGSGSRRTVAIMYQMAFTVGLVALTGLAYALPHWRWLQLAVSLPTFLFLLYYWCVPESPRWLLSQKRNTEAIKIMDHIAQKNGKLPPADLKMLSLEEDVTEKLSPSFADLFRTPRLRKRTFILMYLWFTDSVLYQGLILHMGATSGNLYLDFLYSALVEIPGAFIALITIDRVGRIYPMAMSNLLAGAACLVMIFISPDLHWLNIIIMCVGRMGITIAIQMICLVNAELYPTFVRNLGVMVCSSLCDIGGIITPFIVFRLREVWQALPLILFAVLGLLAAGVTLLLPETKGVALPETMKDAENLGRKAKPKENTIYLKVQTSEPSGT

OCT1*3 (R61C) = target: T6, OCT1*3 (R61C) (Homo sapiens, UniProt O15245, R61C)
T6 sequence (O15245 1-554 R61C): T5 sequence (O15245 1-554) with R61C
Description: (§5) The cells were kept in culture for no more than 30 passages.
(§6) The HEK293 cells were cultered in DMEM medium supplemented with 10% (v/v) fetal bovine serum as well as penicillin (100 U/ml) and streptomycin (100 μg/ml) obtained from Thermo Fisher Scientific (Darmstadt, Germany). Cells were seeded on 12-well plates coated with poly-D-lysine (Sigma-Aldrich, Taufkirchen, Germany) 48 h before the transport experiments and incubated at 37°C, 95% relative humidity, and 5% CO2. Cell lines overexpressing MATE2-K were incubated with 30 mM NH4Cl in HBSS+ (10 mM HEPES in HBSS, pH 7.4; Thermo Fisher Scientific, Darmstadt, Germany) for 30 min prior to the assay to invert the direction of transport. All cell lines were washed with 37°C HBSS+ and subsequently incubated with the pre-warmed substrate in HBSS+ at 37°C. […] Subsequently, the intracellular substrate accumulation was determined using LC-MS/MS.
(§7) Intracellular accumulation was measured by HPLC-MS/MS using a Shimadzu Nexera HPLC system with a LC-30AD pump, a SIL-30AC autosampler, a CTO-20AC column oven, and a CBM-20A controller (Shimadzu, Kyoto, Japan). […] Peak integration and quantification of the analytes was done using the Analyst software (Version 1.6.2, AB SCIEX, Darmstadt, Germany) and determined by simultaneous measurement of standard curves with known concentrations. […]

OCT1 [5] = target: T5, OCT1; assay: Screening of cellular uptake at 1 µM, OCT1-overexpressing HEK293 cells over empty vector control cells; conditions: 2 min
Excerpt: as §1, §2

OCT1*1 (WT) = target: T7, OCT1*1 (WT) (Homo sapiens, UniProt O15245); conditions: net transport, 2 min
T7 sequence (O15245 1-554): T5 sequence (O15245 1-554)
Description: as §5, §6, §7

OCT3 = target: T8, OCT3 (Homo sapiens, UniProt O75751); assay: Screening of cellular uptake at 1 µM, OCT3-overexpressing HEK293 cells over empty vector control cells; type: in vitro ADME; conditions: 2 min
T8 construct: Koepsell and Gorbulev (University of Würzburg); host or cells: HEK293
T8 sequence (O75751 1-556): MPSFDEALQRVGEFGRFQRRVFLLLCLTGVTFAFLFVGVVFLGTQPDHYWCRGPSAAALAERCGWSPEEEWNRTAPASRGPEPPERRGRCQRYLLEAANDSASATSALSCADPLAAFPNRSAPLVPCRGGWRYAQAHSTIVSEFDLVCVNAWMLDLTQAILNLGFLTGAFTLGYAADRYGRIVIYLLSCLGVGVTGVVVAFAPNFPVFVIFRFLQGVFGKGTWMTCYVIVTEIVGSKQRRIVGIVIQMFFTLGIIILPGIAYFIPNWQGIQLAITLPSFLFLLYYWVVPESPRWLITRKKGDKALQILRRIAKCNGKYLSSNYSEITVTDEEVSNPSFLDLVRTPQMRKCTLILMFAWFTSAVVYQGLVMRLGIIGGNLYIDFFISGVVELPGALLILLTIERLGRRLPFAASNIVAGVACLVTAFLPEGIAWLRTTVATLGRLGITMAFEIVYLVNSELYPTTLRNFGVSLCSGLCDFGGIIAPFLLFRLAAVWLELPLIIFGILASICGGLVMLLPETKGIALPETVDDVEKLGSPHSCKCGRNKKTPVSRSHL
Excerpt: as §1, §2

OCT1*6 (M420del, C88R) = target: T9, OCT1*6 (M420del, C88R) (Homo sapiens, UniProt O15245, C88R/DEL420-420)
T9 sequence (O15245 with tags, fused parts or gaps C88R/DEL420-420): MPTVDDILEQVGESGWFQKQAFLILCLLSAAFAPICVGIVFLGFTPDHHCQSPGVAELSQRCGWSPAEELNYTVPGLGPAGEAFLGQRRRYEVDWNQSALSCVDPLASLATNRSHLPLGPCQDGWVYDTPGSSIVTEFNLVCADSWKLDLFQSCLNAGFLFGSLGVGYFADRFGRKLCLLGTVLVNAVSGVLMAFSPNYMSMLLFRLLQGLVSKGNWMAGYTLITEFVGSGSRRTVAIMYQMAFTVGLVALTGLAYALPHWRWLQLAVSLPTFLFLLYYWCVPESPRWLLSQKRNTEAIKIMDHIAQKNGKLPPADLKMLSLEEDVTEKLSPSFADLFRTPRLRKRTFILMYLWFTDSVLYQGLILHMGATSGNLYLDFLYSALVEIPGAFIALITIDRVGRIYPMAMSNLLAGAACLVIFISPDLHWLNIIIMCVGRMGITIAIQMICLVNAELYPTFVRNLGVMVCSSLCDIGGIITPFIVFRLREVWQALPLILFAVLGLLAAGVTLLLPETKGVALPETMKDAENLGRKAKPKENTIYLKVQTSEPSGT
Description: as §5
The HEK293 cells were cultered in DMEM medium supplemented with 10% (v/v) fetal bovine serum as well as penicillin (100 U/ml) and streptomycin (100 μg/ml) obtained from Thermo Fisher Scientific (Darmstadt, Germany). Cells were seeded on 12-well plates coated with poly-D-lysine (Sigma-Aldrich, Taufkirchen, Germany) 48 h before the transport experiments and incubated at 37°C, 95% relative humidity, and 5% CO2. Cell lines overexpressing MATE2-K were incubated with 30 mM NH4Cl in HBSS+ (10 mM HEPES in HBSS, pH 7.4; Thermo Fisher Scientific, Darmstadt, Germany) for 30 min prior to the assay to invert the direction of transport. All cell lines were washed with 37°C HBSS+ and subsequently incubated with the pre-warmed substrate in HBSS+ at 37°C. The time points for measuring substrate uptake were 1 min for MATE2-K and 2 min for the other SLCs. […] It was assumed to be linear for the other transporters as well, based on previous experience with these expression systems. […] Subsequently, the intracellular substrate accumulation was determined using LC-MS/MS.
as §4
For the screenings, cellular uptake measured in cell lines overexpressing the respective transporter was divided by the uptake measured in an empty vector control cell line to calculate normalised ratios to enable comparisons between test compounds. For studying transport kinetics, the net transport mediated by the overexpressed transporters was calculated by subtracting the cellular uptake measured in an empty vector control cell line from the uptake in cell lines overexpressing the respective transporter. […]

SERT = SERT (Homo sapiens, UniProt P31645); assay: Screening of cellular uptake at 1 µM, SERT-overexpressing HEK293 cells over empty vector control cells; type: in vitro ADME; conditions: 2 min
MATE2-K = target: T10, MATE2-K (Homo sapiens, UniProt Q86VL8); assay: Screening of cellular uptake at 1 µM, MATE2-K-overexpressing HEK293 cells over empty vector control cells; type: in vitro ADME; conditions: 1 min
T10 construct: expressed in transfected cells
Excerpt: as §1, §2

T1 sequence (Q01959 whole entry): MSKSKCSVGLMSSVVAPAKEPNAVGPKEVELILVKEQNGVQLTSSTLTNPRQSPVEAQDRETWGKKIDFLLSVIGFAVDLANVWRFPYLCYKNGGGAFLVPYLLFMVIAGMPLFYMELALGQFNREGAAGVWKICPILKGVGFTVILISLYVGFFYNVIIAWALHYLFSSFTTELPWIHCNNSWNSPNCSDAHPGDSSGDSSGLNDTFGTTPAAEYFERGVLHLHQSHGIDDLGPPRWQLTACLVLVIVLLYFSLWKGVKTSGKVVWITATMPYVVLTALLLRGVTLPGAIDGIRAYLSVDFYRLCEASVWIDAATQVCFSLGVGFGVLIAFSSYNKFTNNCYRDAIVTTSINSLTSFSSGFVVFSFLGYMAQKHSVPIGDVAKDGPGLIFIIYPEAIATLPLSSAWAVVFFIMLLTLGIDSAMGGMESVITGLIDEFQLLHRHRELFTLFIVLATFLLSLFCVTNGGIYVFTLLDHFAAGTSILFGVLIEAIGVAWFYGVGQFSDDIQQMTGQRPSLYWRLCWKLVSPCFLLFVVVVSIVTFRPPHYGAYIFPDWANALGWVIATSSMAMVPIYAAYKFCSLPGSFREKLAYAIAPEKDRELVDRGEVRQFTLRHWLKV
NET, sequence (P23975 whole entry): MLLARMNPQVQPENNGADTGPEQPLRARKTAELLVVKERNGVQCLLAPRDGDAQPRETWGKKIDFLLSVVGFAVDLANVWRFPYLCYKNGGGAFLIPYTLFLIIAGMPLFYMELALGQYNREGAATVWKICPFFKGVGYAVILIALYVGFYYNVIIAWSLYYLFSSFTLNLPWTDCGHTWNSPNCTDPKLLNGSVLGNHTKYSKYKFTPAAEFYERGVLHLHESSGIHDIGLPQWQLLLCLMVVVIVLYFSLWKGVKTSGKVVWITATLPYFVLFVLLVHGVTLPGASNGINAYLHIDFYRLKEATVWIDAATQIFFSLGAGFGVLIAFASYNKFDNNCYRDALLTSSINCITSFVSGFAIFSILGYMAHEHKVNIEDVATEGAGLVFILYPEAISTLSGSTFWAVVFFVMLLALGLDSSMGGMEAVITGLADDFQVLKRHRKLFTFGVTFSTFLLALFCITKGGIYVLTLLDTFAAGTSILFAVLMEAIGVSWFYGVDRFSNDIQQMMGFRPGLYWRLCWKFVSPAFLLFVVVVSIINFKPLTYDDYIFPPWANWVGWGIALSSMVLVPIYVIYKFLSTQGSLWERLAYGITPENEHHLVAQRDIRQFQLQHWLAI
SERT, sequence (P31645 whole entry): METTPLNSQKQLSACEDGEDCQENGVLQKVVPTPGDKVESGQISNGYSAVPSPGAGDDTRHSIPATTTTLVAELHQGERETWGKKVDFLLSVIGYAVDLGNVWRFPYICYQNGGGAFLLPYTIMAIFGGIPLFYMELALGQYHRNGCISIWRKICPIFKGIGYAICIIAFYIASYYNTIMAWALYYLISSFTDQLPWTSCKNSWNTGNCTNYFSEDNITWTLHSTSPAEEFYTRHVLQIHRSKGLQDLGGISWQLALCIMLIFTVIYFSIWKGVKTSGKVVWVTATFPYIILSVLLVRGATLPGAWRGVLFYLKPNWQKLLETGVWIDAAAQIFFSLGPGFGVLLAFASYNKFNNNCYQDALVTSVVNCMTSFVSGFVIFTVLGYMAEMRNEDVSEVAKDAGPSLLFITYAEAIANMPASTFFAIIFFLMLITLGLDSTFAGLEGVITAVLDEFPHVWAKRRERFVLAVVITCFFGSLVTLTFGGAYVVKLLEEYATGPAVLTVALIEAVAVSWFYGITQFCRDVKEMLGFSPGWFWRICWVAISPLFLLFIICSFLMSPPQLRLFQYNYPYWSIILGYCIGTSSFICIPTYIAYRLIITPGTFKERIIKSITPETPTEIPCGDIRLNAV
T10 sequence (Q86VL8 1-566 isoform Q86VL8-3): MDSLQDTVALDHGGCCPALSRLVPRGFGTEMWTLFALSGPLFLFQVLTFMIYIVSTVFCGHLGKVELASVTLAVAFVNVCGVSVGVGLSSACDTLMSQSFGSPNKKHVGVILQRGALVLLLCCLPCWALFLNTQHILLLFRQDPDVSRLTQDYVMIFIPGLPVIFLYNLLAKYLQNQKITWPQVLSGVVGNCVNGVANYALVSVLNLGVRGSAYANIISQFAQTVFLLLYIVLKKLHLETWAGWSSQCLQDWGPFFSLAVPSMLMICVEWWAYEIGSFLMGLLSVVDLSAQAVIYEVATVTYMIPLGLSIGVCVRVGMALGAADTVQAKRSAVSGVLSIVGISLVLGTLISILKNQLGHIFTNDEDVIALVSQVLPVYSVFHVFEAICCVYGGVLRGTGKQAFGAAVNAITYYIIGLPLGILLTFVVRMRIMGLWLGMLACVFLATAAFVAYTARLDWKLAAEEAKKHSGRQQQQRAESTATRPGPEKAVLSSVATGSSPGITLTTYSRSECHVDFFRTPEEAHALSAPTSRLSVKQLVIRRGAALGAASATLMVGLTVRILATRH

SMILES	excreted unchanged in urine [1]	ratio of uptake in transporter-transfected cells over empty vector control cells (DAT [2])	ratio of uptake in transporter-transfected cells over empty vector control cells (OCT2)	Km higher for DAT compared with NET (DAT [3])	vmax higher for DAT compared with NET (DAT [3])	ratio of uptake in transporter-transfected cells over empty vector control cells (NET)	vmax (OCT2 variant A270S; OCT2 A270S)	Km at 2 min (OCT2 variant A270S; human, pH 7.4)	vmax (wild-type OCT2; OCT2 WT)	Km at 2 min (wild-type OCT2; human, pH 7.4)	inhibition of mescaline uptake by OCT1 (OCT1 [4])	vmax (OCT1*3 (R61C))	ratio of uptake in transporter-transfected cells over empty vector control cells (OCT1 [5])	vmax (OCT1*1 (WT))	ratio of uptake in transporter-transfected cells over empty vector control cells (OCT3)	transport activity (OCT1*6 (M420del, C88R); OCT1*6)	Km (OCT1*6 (M420del, C88R); OCT1*6 (M420del, C88R))	vmax (OCT1*6 (M420del, C88R); OCT1*6 (M420del, C88R))	ratio of uptake in transporter-transfected cells over empty vector control cells (SERT)	ratio of uptake in transporter-transfected cells over empty vector control cells (MATE2-K)
C[C@H](N)[C@@H](O)c1ccccc1 [Cathine, (+)-norpseudoephedrine]	46–65%	7 fold	4- to 6 fold	21 fold	10 fold	4 fold	505.4 (± 168.1) pmol × mg protein^-1 × min^-1	58.4 µM	570.1 (± 94.3) pmol × mg protein^-1 × min^-1	46 ± 17.3 µM	–	–	–	–	–	–	–	–	–	–
C[n+]1ccc(-c2ccccc2)cc1 [MPP^+, 1-methyl-4-phenylpyridinium]	–	–	–	–	–	–	–	–	–	–	completely inhibited	–	–	–	–	–	–	–	–	–
COc1cc(CCN)cc(OC)c1OC [Mescaline]	–	not transported much	–	–	–	not transported much	–	–	–	–	–	391 ± 266 pmol × mg protein^−1 × min^−1	more than 8 fold	642 pmol × mg protein^−1 × min^−1 and 642 ± 57 pmol × mg protein^−1 × min^−1	not transported much	very low transport activity	Not determinable	Not determinable	not transported much	not transported much
